Reference: publication PMC7996328, “Design, Synthesis, and Biological Evaluation of a Series of 5- and 7-Hydroxycoumarin Derivatives as 5-HT1A Serotonin Receptor Antagonists” (Pharmaceuticals, 2021)
Where two headings read alike, the source gives them in different places.

Key:
5-HT1A receptor [1] = details: previously synthesized coumarins derivatives, Figure 1; read-out: Ki, 5-HT1A receptor affinity; cited from earlier work
5-HT2A receptor = biological target: T1, 5-HT2A receptor (Rattus norvegicus, UniProt P14842); experiment: 5-HT2A competition binding assay, [3H]ketanserin, frontal cortex homogenates; details: [3H]ketanserin 1 nM, read-out: Ki (nM ± SEM) (converted)
T1 construct: from tissue; host or cells: rat frontal cortex (male SD), membrane homogenate

[2] = Solubility under experimental conditions of the 5-HT1A assay; type: physicochemical; details: reason for not testing in 5-HT1A assay
Protocol: Compounds were dissolved in 9.5% DMSO and 0.5% Kolliphor® EL (Sigma Aldrich, Taufkirchen, Germany). Serial dilutions of the compounds tested (10^−10–10^−5 M) were incubated in triplicate with 0.8 nM [^35S]GTPγS in assay buffer (50 mM Tris-HCl, pH = 7.4, 1 mM EGTA, 3 mM MgCl2, 100 mM NaCl, 30 µM GDP) and 8-OH-DPAT (final concentration 1.4 × 10^−7 M) in the final assay volume of 250 µL. Hippocampal homogenates (15 μg/mL) were added to each tube as the 5-HT1A receptor source. The final DMSO and Kolliphor® EL concentrations were 0.95% and 0.05%, respectively. Non-specific binding was determined with 10 µM of unlabeled GTPγS. The reaction mixture was incubated for 90 min at 37 °C in a volume of 250 µL. Next, 96-well Unifilter® Plates (Perkin Elmer, Waltham, MA, USA) were presoaked for 1 h with 50 mM Tris-HCl (pH = 7.4) before harvesting. The reaction was terminated by vacuum filtration onto filter plates with the FilterMate Harvester® (Perkin Elmer, Waltham, MA, USA). The samples were then rapidly washed with 2 mL of 50 mM Tris-HCl (pH = 7.4) buffer. Filter plates were dried for 2 h at 50 °C. After drying, 45 µL of EcoScint-20 scintillant (Perkin Elmer) was added to every well. Radioactivity was counted in a Trilux MicroBeta^2 counter (Perkin Elmer). Data were analyzed with GraphPad Prism 5.0 software (GraphPad Software, San Diego, CA, USA, www.graphpad.com). Curves were fitted with a one-site non-linear regression model. Efficacy (Emax) and half maximal inhibitory concentration (IC50) were calculated from the Cheng–Prusoff equation and expressed as means ± SEM.

5-HT1A receptor [3] = biological target: T2, 5-HT1A receptor (Rattus norvegicus, UniProt P19327); experiment: G-protein enhancing (agonist) effect at the 5-HT1A receptor; type: biochemical
T2 construct: Hippocampal homogenates (15 μg/mL) were added to each tube as the 5-HT1A receptor source; from tissue; host or cells: rat hippocampus (male Sprague-Dawley), membrane homogenate
T2 sequence (P19327 1-422): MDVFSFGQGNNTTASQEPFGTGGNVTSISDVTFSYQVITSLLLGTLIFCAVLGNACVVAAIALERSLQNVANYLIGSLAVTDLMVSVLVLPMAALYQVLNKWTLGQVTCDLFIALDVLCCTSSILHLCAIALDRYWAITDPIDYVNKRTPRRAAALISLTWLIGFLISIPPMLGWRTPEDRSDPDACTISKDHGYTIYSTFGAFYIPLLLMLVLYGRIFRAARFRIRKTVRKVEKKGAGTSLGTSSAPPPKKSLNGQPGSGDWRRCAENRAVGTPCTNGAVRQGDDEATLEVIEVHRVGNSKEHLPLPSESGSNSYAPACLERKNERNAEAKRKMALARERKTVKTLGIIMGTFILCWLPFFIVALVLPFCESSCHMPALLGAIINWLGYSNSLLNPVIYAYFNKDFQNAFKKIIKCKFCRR

[4] = G-protein enhancing effect, 5-HT1A

T1 sequence (P14842 whole entry): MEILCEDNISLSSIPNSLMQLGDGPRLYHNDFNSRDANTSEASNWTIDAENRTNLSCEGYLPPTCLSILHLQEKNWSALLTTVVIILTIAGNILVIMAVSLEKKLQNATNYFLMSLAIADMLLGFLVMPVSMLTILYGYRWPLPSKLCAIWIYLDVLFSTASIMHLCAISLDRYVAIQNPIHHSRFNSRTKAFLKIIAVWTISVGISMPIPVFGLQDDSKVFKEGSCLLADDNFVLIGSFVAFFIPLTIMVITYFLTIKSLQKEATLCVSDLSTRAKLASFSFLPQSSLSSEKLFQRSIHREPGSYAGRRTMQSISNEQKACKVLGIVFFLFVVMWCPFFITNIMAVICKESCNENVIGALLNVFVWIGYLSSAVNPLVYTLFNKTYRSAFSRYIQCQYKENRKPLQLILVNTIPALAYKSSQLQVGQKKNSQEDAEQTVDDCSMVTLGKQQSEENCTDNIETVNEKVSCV

SMILES	Ki (5-HT1A receptor [1])	solubility under experimental conditions [2]	melting point	other results
Cc1cc(OCCCCN2CCN(c3cccc(Cl)c3Cl)CC2)c2c(C)cc(=O)oc2c1 [IId]	4 ± 0.8 nM	–	–	–
CC(=O)c1c(OCCN2CCN(c3cccc(Br)c3)CC2)ccc2c(C)cc(=O)oc12 [Compound 6g, 8-acetyl-7-(2-[4-(3-bromohenyl)piperazin-1-yl]ethoxy)-4-methylchromen-2-one]	–	very poor solubility	110 to 112 °C	Ki (5-HT2A receptor): 1490 ± 466 nM
Cc1cc(OCCCN2CCN(c3ccccc3C#N)CC2)c2c(C)cc(=O)oc2c1 [IIe]	1.5 ± 0.2 nM	–	–	–
Cc1cc(OCCCN2CCN(c3cccc(Cl)c3Cl)CC2)c2c(C)cc(=O)oc2c1 [IIc]	8 ± 0.04 nM	–	–	–
CC(=O)c1c(C)cc2oc(=O)cc(C)c2c1OCCCCCN1CCN(c2ccccc2C#N)CC1 [Compound 3j, 6-acetyl-5-(5-(4-(2-cyanophenyl)piperazin-1-yl)pentyloxy)-4,7-dimethyl-2H-chromen-2-one]	–	very poor solubility	116 to 118 °C	–
Cc1cc(OCCCCN2CCN(c3ccccc3C#N)CC2)c2c(C)cc(=O)oc2c1 [IIf]	3 ± 0.2 nM	–	–	–
Cc1cc(OCCCCCN2CCN(c3cccc(Br)c3)CC2)c2c(C)cc(=O)oc2c1 [Compound 1g, 5-(5-(4-(3-bromophenyl)piperazin-1-yl)pentyloxy)-4,7-dimethyl-2H-chromen-2-one]	–	very poor solubility	107 to 109 °C	–
Cc1cc(OCCN2CCN(c3cccc(Br)c3)CC2)c2c(C)cc(=O)oc2c1 [Compound 2g, 5-(4-(4-(3-bromophenyl)piperazin-1-yl)ethoxy)-4,7-dimethyl-2H-chromen-2-one]	–	–	126 to 127 °C	Emax (5-HT1A receptor [3]; [4]): 118 ± 6.5%; Emax (% ± SEM) (5-HT1A receptor [3]; [4]): 113 ± 6.5%; EC50 (5-HT1A receptor [3]; G-protein enhancing effect, 5-HT1A, read-out: EC50 (nM ± SEM)): 5080 ± 2640 nM; EC50 (5-HT1A receptor [3]; G-protein enhancing effect, 5-HT1A, read-out: pEC50 (converted)): 6310 nM; functional character at the 5-HT1A receptor (5-HT1A receptor [3]; in words): weak partial agonists; Ki (5-HT2A receptor): 3540 nM
Cc1ccc(C)c(N2CCN(CCCCCOc3cc(C)cc4oc(=O)cc(C)c34)CC2)c1 [Compound 1d, 5-(5-(4-(2,5-dimethylphenyl)piperazin-1-yl)pentyloxy)-4,7-dimethyl-2H-chromen-2-one]	–	very poor solubility	132 to 134 °C	–
Cc1cc(OCCCN2CCN(c3ccccc3F)CC2)c2c(C)cc(=O)oc2c1 [IIa]	1.7 ± 0.005 nM	–	–	–
Cc1cc(OCCCCN2CCN(c3ccccc3F)CC2)c2c(C)cc(=O)oc2c1 [IIb]	3 ± 0.1 nM	–	–	–
